# Patent publication US11382956B2, “Amylin analogues” (Zealand Pharma A/S, priority 2016, dated 2022)
# Numbered stars: 1 amine (or outer) side, 2 acyl side, 3 side chain; on linkers, the order of the positions; unused ones are H or OH. Bridge positions count the residues as written; N and C are the ends. Square brackets hold non-standard residues; d marks the D form. Peptide text beside a SMILES is read from it. * marks the point of attachment. C20 diacid = O=C(O)CCCCCCCCCCCCCCCCCCC(=O)*; γGlu = O=C(O)[C@H](CCC(=O)[*:2])N[*:1]; Hyp = O=C(O)[C@@H]1C[C@@H](O)CN1; NMeI = CC[C@H](C)[C@H](NC)C(=O)O; Dab = NCC[C@H](N)C(=O)O; Sar = CNCC(=O)O
# What was measured:
# [1] = target: T1, recombinant human amylin 3 receptor (hAMYR3) (Homo sapiens, UniProt O60896+P30988); experiment: hAMYR3 cAMP assay (AlphaScreen) in 1321N1 cells; format: cell-based; details: cAMP formation, 45 min stimulation
# T1 construct: host or cells: human astrocytoma cell line 1321N1
# T1 sequence (P30988 25-474): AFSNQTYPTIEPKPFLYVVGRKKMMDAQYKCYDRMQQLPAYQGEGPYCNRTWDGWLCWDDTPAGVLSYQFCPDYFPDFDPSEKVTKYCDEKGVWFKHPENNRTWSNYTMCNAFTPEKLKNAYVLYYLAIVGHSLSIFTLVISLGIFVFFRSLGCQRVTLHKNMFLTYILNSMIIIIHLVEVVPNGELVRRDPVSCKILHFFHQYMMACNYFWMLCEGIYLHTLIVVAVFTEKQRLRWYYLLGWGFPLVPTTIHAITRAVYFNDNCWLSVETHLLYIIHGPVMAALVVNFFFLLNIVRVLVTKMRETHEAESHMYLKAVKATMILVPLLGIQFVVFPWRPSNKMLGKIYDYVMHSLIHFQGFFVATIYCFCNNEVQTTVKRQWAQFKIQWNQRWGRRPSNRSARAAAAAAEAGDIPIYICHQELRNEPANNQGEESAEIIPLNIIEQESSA
# T1 sequence (O60896 24-148 partner): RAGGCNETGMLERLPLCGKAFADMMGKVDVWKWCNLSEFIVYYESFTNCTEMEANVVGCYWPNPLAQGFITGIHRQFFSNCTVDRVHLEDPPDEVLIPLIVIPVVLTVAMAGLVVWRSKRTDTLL
# Text: (§1) For the assessment of the in vitro activity of test peptides, cell lines expressing recombinant human calcitonin receptor (hCT-R) or recombinant human amylin 3 receptor (hAMYR3) in the background of the human astrocytoma cell line 1321N1 were purchased from DiscoveRx Corporation (Cat. No. 95-016106 and 95-0166C6). The hAMYR3 is a hetero-oligomer of the calcitonin receptor (Isoform 2; Gene ID 799) and RAMPS (Gene ID 10268) that forms when both genes are expressed in the same cell. The hCT-R cell line expresses only the recombinant human calcitonin receptor gene (Isoform 2; Gene ID 799). Upon activation of hCT-R or hAMYR3 by the test peptides the formation of cAMP is induced and was measured using the AlphaScreen® cAMP Assay kit from Perkin-Elmer (Cat. No. 6760635R).
# (§2) Briefly, 1321N1 cells expressing hCT-R or hAMYR3 were seeded in 384-well microtiter plates (Falcon Optilux White, Cat.-No. 10448642) at 5,000 cells in […] growth medium per well (AssayComplete 1321N1 Cell Culture Kit, DiscoveRx Corp.), and incubated for 24 h at 37° C., 5% CO2. On the day of analysis growth medium was removed and the cells were stimulated by adding 10 μL of stimulation buffer (10 […], 0.1% BSA) containing increasing concentrations of test peptides, and incubation for 45 min at room temperature. The stimulation was stopped by adding 5.6 μL/well donor bead detection mix (5 mM Hepes pH7.4, 0.5% TWEEN 20, 0.1% BSA, 0.05 mg/mL donor beads, 62.5 nM biotinylated cAMP) and 4.5 μL/well acceptor bead solution (5 mM Hepes pH7.4, 0.5% TWEEN 20, 0.1% BSA, 0.05 mg/mL acceptor beads). After thorough mixing the plates were incubated in the dark for 1 h at room temperature and the cAMP content of the resulting cell lysates was estimated according to the AlphaScreen® cAMP Assay manufacturer's instructions. EC50 values were estimated by computer-aided curve fitting of results of at least 7 different compound concentrations.
# [2] = target: T2, recombinant human calcitonin receptor (hCT-R) (Homo sapiens, UniProt P30988); experiment: hCT-R cAMP assay (AlphaScreen) in 1321N1 cells; format: cell-based; details: cAMP formation, 45 min stimulation
# T2 construct: host or cells: human astrocytoma cell line 1321N1
# T2 sequence (P30988 25-474): T1 sequence (P30988 25-474)
# Text: as §1, §2
Structure (SMILES),EC50 [1],EC50 [2]
"CC[C@H](C)[C@@H](C(=O)N[C@@H](CC(C)C)C(=O)N[C@@H](CO)C(=O)N[C@@H](CO)C(=O)N[C@H](C(=O)N[C@@H](CCC(=O)O)C(=O)N[C@H](C(=O)NCC(=O)N[C@@H](CO)C(=O)N[C@@H](CC(N)=O)C(=O)N[C@H](C(=O)N1C[C@H](O)C[C@H]1C(N)=O)[C@@H](C)O)C(C)C)[C@@H](C)O)N(C)C(=O)[C@H](C)NC(=O)CN(C)C(=O)[C@H](Cc1ccccc1)NC(=O)[C@H](CO)NC(=O)[C@H](CO)NC(=O)[C@H](CCCNC(=N)N)NC(=O)[C@H](CCC(N)=O)NC(=O)[C@H](CC(C)C)NC(=O)[C@H](Cc1ccccc1)NC(=O)[C@H](Cc1c[nH]cn1)NC(=O)[C@H](C)NC(=O)[C@H](CC(C)C)NC(=O)[C@H](CCCNC(=N)N)NC(=O)[C@H](CCC(=O)O)NC(=O)[C@@H](NC(=O)[C@H](C)NC(=O)[C@@H]1CCNC(=O)C[C@H](NC(=O)[C@H](CCCNC(=N)N)NC(=O)CC[C@H](NC(=O)CCCCCCCCCCCCCCCCCCC(=O)O)C(=O)O)C(=O)NCC(=O)N[C@@H]([C@@H](C)O)C(=O)N[C@@H](C)C(=O)N[C@@H]([C@@H](C)O)C(=O)N1)[C@@H](C)O [Compound 2, [19CD]-isoGlu-RD()GTAT-Dab()-ATERLAHFLQRSSF-Gly(Me)-A-Ile(Me)-LSSTEVGSNT-Hyp-NH2] ({C20 diacid-γGlu}-RDGTAT[Dab]ATERLAHFLQRSSF[Sar]A[NMeI]LSSTEVGSNT[Hyp]-NH2; lactam 2-7)",32 pM,105 pM
"CC[C@H](C)[C@@H](C(=O)N[C@@H](CC(C)C)C(=O)N[C@@H](CO)C(=O)N[C@@H](CO)C(=O)N[C@H](C(=O)N[C@@H](CCC(=O)O)C(=O)N[C@H](C(=O)NCC(=O)N[C@@H](CO)C(=O)N[C@@H](CC(N)=O)C(=O)N[C@H](C(=O)N1C[C@H](O)C[C@H]1C(N)=O)[C@@H](C)O)[C@@H](C)O)[C@@H](C)O)N(C)C(=O)[C@H](C)NC(=O)CN(C)C(=O)[C@H](Cc1ccccc1)NC(=O)[C@H](CO)NC(=O)[C@H](CO)NC(=O)[C@H](CCCNC(=N)N)NC(=O)[C@H](CCC(N)=O)NC(=O)[C@H](CC(C)C)NC(=O)[C@H](Cc1ccccc1)NC(=O)[C@H](CC(=O)O)NC(=O)[C@H](C)NC(=O)[C@H](CC(C)C)NC(=O)[C@H](CCCNC(=N)N)NC(=O)[C@H](CCC(N)=O)NC(=O)[C@@H](NC(=O)[C@H](C)NC(=O)[C@@H]1CCCCNC(=O)C[C@H](NC(=O)[C@H](CCCNC(=N)N)NC(=O)CC[C@H](NC(=O)CCCCCCCCCCCCCCCCCCC(=O)O)C(=O)O)C(=O)NCC(=O)N[C@@H]([C@@H](C)O)C(=O)N[C@@H](C)C(=O)N[C@@H]([C@@H](C)O)C(=O)N1)[C@@H](C)O [Compound 42, [19CD]-isoGlu-RD()GTATK()ATQRLADFLQRSSF-Gly(Me)-A-Ile(Me)-LSSTETGSNT-Hyp-NH2] ({C20 diacid-γGlu}-RDGTATKATQRLADFLQRSSF[Sar]A[NMeI]LSSTETGSNT[Hyp]-NH2; lactam 2-7)",3 pM,6 pM
